Experimental data published in patent US9000045B2, “CETP activity inhibitors” (Japan Tobacco Inc., priority 1997, dated 2015).

Experiments:
CETP [1] = target: T1, CETP (Homo sapiens, UniProt P11597); assay: Ex vivo CETP activity inhibitory effect of plasma from transgenic mice; set-up: from tissue; host or cells: plasma of transgenic mice carrying the human CETP gene; details: mouse, po, p.o., 6 hours after administration, transgenic mice with human CETP gene, read-out: CETP activity inhibitory rate in plasma from transgenic mouse
T1 sequence (P11597 18-493): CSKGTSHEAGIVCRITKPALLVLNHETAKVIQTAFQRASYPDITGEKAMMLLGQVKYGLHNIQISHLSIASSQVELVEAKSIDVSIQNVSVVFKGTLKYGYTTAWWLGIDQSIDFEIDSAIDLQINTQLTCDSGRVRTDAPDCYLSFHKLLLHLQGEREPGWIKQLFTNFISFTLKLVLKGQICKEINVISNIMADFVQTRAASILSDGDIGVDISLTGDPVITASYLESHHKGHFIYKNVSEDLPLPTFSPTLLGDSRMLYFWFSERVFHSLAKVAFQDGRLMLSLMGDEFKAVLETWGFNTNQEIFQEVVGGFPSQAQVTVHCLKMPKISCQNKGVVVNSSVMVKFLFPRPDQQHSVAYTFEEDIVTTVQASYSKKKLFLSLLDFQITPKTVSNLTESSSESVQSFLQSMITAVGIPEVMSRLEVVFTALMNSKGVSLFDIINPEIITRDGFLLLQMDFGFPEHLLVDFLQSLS
Experimental: Potassium bromide (KBr) was added to the plasma of healthy subjects (40 ml) to adjust specific gravity to d=1.125 g/ml. Density gradient centrifugation (227,000×g, 4° C., 17 hours) was conducted to obtain a fraction with specific gravity d>1.125 g/ml (HDL3 fraction). The fraction thus obtained was dialyzed against a PBS solution [10 mM Na2HPO4/10 mM NaH2PO4/0.15 M NaCl/1 mM EDTA (pH 7.4)]. Then, tritium-labeled cholesterol (10 nM) (50.3 Ci/mM) was dissolved in 95% ethanol and added gradually to the above HDL3 fraction under stirring. The solution was incubated for 18 hours at 37° C. [Tritium-labeled cholesterol was esterified by this procedure by the action of lecithin:cholesterol acyltransferase (LCAT) present on the surface of HDL3 and taken up into the interior of HDL3 as tritium-labeled cholesterylester ([^3H]CE)]. After incubation, KBr was added and specific gravity was adjusted to d=1.21 g/ml. Density gradient centrifugation (227,000×g, 4° C., 17 hours) was conducted and the fraction with d<1.21 g/ml was harvested. The fraction thus obtained was dialyzed against the above PBS solution to obtain HDL3 that took up [^3H]CE ([^3H]CE-HDL3, specific gravity: 1.125<d<1.21, specific activity: 101,000 dpm/nM), which served as donor lipoprotein.
Physiological saline (specific gravity d=1.006 g/ml) was layered upon the plasma of healthy subjects (100 ml). Density gradient centrifugation (227,000×g, 4° C., 4 hours) was conducted and the fraction with specific gravity d>1.006 g/ml was harvested. KBr was added to the fraction thus obtained to adjust specific gravity to d=1.063 g/ml and density gradient centrifugation (227,000×g, 4° C., 20 hours) was conducted to harvest the fraction with specific gravity […]. The thus-obtained fraction was dialyzed against the above PBS solution to obtain fractions containing IDL and LDL (specific gravity: 1.006<d<1.063), which served as acceptor lipoprotein.
Samples were suspended in a 0.5% methylcellulose solution and administered orally using a plastic probe to transgenic mice having introduced human CETP gene (hereafter referred to as mice; prepared using the method described in Japanese Patent Application No. Hei 8-130660), which had been fasted overnight. Blood was collected before administration, and 6 hours after administration CETP activity in the plasma was determined using the following method.
Donor lipoprotein ([^3H]CE-HDL3, containing 0.21 μg cholesterol) obtained in the above (1), acceptor lipoprotein obtained in the above (2) (containing 21 μg of cholesterol), and 0.9 μl of mice plasma were added to microtubes. A total volume was adjusted to 600 μl/tube with a TBS solution [10 mM Tris/0.15 M NaCl (pH 7.4)]. The microtubes were incubated for 15 hours at 37° C. or 4° C. Then, an ice-cooled TBS solution (400 μl/tube) and a 0.3% dextran sulfate solution (100 μl/tube) containing 0.15 M magnesium chloride were added to the microtubes and mixed well. After allowing the microtubes to stand for 30 minutes at 4° C., centrifugation (8,000 rpm, 4° C., 10 minutes) was carried out and radioactivity of the resulting supernatant (HDL fraction) was determined with a scintillation counter.

CETP [2] = target: T1, CETP; assay: In vitro CETP activity inhibitory effect in whole plasma; type: biochemical; set-up: Plasma containing [^3H]CE-HDL3 (600,000 dpm/ml) was prepared by adding donor lipoprotein obtained in the above (1) to plasma from healthy subjects; from tissue; host or cells: whole plasma of healthy subjects; details: plasma from healthy subjects containing [3H]CE-HDL3, incubated 4 hours at 37° C.; read-out: CETP activity inhibition in whole plasma IC50
Summary of the method: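 HDL3 was labelled with tritiated cholesterol (10 nM) for 18 h at 37° C in PBS with EDTA (pH 7.4). Test samples were in 1:1 N-methylpyrrolidone/PEG 400 and assayed in whole plasma. IC50 was calculated from % inhibition of CETP activity.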

inhibition at 30 mg/kg (CETP [1]) [%]	IC50 (CETP [2]) [µM]	inhibition at 100 mg/kg (CETP [1]) [%]	inhibition at 10 mg/kg (CETP [1]) [%]	inhibition at 300 mg/kg (CETP [1]; 300 mg/kg) [%]	Compound
–	8	9	–	–	CC(C)CCC1(C(=O)Nc2cc(Cl)c(Cl)cc2SC(=O)NC(C)(C)C)CCCCC1 [Example 25-102]
–	6	14	–	–	CC(C)CCC1(C(=O)Nc2ccccc2SC(=O)NC(C)(C)C)CCCC1 [Example 25-105]
–	7	8	–	–	CC(C)CCC1(C(=O)Nc2cc(Cl)c(Cl)cc2SC(=O)NC(C)(C)C)CCCC1 [Example 25-108]
39	61	52	23	55	CC(C)CCC1(C(=O)Nc2ccccc2SC(=O)C(C)(C)C)CCCCC1 [Example 33]
40	6	–	15	–	CCC(=O)Sc1ccccc1NC(=O)C1(CCC(C)C)CCCCC1 [Example 38]
48	23	64	20	–	CC(C)CCC1(C(=O)Nc2ccccc2SC(=O)C(C)C)CCCCC1 [Example 40]
48	5	–	22	–	CC(C)CCC1(C(=O)Nc2ccccc2SC(=O)C(C)(C)O)CCCCC1 [Example 46]
31	49	50	–	–	CC(C)CCC1(C(=O)Nc2ccccc2SC(=O)C(C)(C)C)CCCC1 [Example 48]
29	6	–	–	–	CC(=O)Sc1ccccc1NC(=O)C1(CCC(C)C)CCCC1 [Example 49]
8	8	–	–	–	CC(C)CCC1(C(=O)Nc2cc(C(F)(F)F)ccc2SC(=O)C(C)(C)C)CCCCC1 [Example 52]
44	41	–	–	–	CCC(CC)CC1(C(=O)Nc2ccccc2SC(=O)C(C)(C)C)CCCCC1 [Example 60]
5	14	–	–	–	CC(C)CCC1(C(=O)Nc2cc([N+](=O)[O-])ccc2SC(=O)C(C)(C)C)CCCCC1 [Example 74]
1	25	–	–	–	CC(C)CCC1(C(=O)Nc2cc(C#N)ccc2SC(=O)C(C)(C)C)CCCCC1 [Example 75]
4	18	–	–	–	CC(C)CCC1(C(=O)Nc2cc(Cl)ccc2SC(=O)C(C)(C)C)CCCCC1 [Example 76]
1	17	–	–	–	CC(C)CCC1(C(=O)Nc2ccc(Cl)cc2SC(=O)C(C)(C)C)CCCCC1 [Example 77]

The remaining lines, values behind:

Compound	inhibition at 30 mg/kg (CETP [1]) [%]	IC50 (CETP [2]) [µM]	inhibition at 100 mg/kg (CETP [1]) [%]	inhibition at 10 mg/kg (CETP [1]) [%]	inhibition at 300 mg/kg (CETP [1]; 300 mg/kg) [%]
COc1ccc(NC(=O)Sc2ccccc2NC(=O)C2(CCC(C)C)CCCCC2)cc1 [Example 25-100]	25	16	–	–	–
CC(C)CCC1(C(=O)Nc2ccccc2SC(=O)N(C(=O)Nc2ccccc2)c2ccccc2)CCCCC1 [Example 25-101]	8	7	–	–	–
CC(C)CCC1(C(=O)Nc2ccccc2SC(=O)Nc2ccccc2)CCCC1 [Example 25-106]	29	10	–	–	–
COc1ccc(NC(=O)Sc2ccccc2NC(=O)C2(CCC(C)C)CCCC2)cc1 [Example 25-107]	22	11	–	–	–
CCC(CC)CC1(C(=O)Nc2ccccc2SC(=O)C(C)C)CCCCC1 [Example 26, S-[2-[1-(2-ethylbutyl)cyclohexanecarbonylamino]-phenyl]2-methylthiopropionate]	44	7	–	–	–
CC(C)CC1(C(=O)Nc2ccccc2SC(=O)C(C)C)CCCCC1 [Example 27, S-[2-(1-isobutylcyclohexanecarbonylamino)phenyl]2-methylthiopropionate]	31	7	–	–	–
CCC(CC)CC1(C(=O)Nc2ccccc2SC(=O)C2CCN(C(C)=O)CC2)CCCCC1 [Example 28, S[2-[1-(2-ethylbutyl)cyclohexanecarbonylamino)-phenyl]1-acetylpiperidine-4-thiocarboxylate]	36	6	–	–	–
CC(=O)N[C@@H](Cc1ccccc1)C(=O)Sc1ccccc1NC(=O)C1(CCC(C)C)CCCCC1 [Example 34]	4	9	–	–	–
CC(C)CCC1(C(=O)Nc2ccccc2SC(=O)CCl)CCCCC1 [Example 36]	19	16	–	–	–
COCC(=O)Sc1ccccc1NC(=O)C1(CCC(C)C)CCCCC1 [Example 37]	42	7	47	18	–
CC(C)CCC1(C(=O)Nc2ccccc2SC(=O)COc2ccccc2)CCCCC1 [Example 39]	41	11	–	17	–
CC(C)CCC1(C(=O)Nc2ccccc2SC(=O)COc2ccc(Cl)cc2)CCCCC1 [Example 41]	42	7	–	27	–
CC(C)CCC1(C(=O)Nc2ccccc2SC(=O)C2CC2)CCCCC1 [Example 42]	38	9	–	31	–
CC(=O)N[C@@H](CCC(N)=O)C(=O)Sc1ccccc1NC(=O)C1(CCC(C)C)CCCCC1 [Example 45]	36	7	–	18	–
CC(C)CCC1(C(=O)Nc2ccccc2SC(=O)C2(N)CCCCC2)CCCCC1 [Example 47]	31	6	–	–	–
CC(C)CCC1(C(=O)Nc2ccccc2SC(=O)Nc2ccccc2)CCCCC1 [Example 56]	34	13	–	–	–
CCC(CC)CC1(C(=O)Nc2ccccc2SC(C)=O)CCCCC1 [Example 59]	44	4	–	–	–
CCC(CC)CC1(C(=O)Nc2ccccc2SC(=O)COC)CCCCC1 [Example 61]	38	4	–	–	–
CCC(CC)CC1(C(=O)Nc2ccccc2SC(=O)C(C)(C)O)CCCCC1 [Example 62]	38	4	–	–	–
CCC(CC)CC1(C(=O)Nc2ccccc2SC(=O)COc2ccc(Cl)cc2)CCCCC1 [Example 63]	43	4	–	–	–
CC(C)CC1(C(=O)Nc2ccccc2SC(=O)COc2ccc(Cl)cc2)CCCCC1 [Example 64]	34	4	–	–	–
